Test results reported in US11225492B2, “Heterocycles useful as anti-cancer agents” (Hangzhou Innogate Pharma Co., Ltd., priority 2015, dated 2022).
Like-named read-outs stand apart in the source and are kept apart here.

Tests used:
Type in all cases: biochemical
CDK4/CycD3 = CDK4/CycD3 (Homo sapiens (Human), UniProt P11802); experiment: CDK4/CycD3 kinase Mobility Shift Assay
Protocol: (§1) 1. CDK2, CDK4 and CDK6 Kinase Assays:
(§2) CDK2/CycA2 and CDK6/cycD3 were assayed under buffer conditions in the presence of 50 mM HEPES (pH 7.5), 10 mM MgCl2, 0.0015% Brij-35, and 2 mM dithiothreitol, CDK4/CycD3 with buffer condition of 20 mM HEPES (pH 7.5), 10 mM MgCl2, 0.01% Triton X-100, and 2 mM dithiothreitol. Prepare compounds to 50× of the final desired highest inhibitor concentration by 100% DMSO and serial dilution in 3-fold for total of 10 concentrations. […] After assay for 60 min, 180 min, 60 min respectively at 28° C., reactions were terminated with stop solution (50 mM EDTA, 0.015% Brij-35, 0.2% Coating Reagent #3 and 100 mM HEPES (pH 7.5)). Collect conversion on Caliper EZ Reader. IC50 values were calculated by fitting the dose-response curves with Xlfit excel add-in version 4.3.1.

CDK6/cycD3 = CDK6/cycD3 (Homo sapiens (Human), UniProt Q00534); experiment: CDK6/cycD3 kinase Mobility Shift Assay; conditions: CDK6/cycD3 15 nM, ATP Km 800 μM, 60 min, 28° C.
Protocol: as §1, §2

CDK2/CycA2 = CDK2/CycA2 (Homo sapiens (Human), UniProt P24941); experiment: CDK2/CycA2 kinase Mobility Shift Assay; conditions: CDK2/CycA2 12 nM, ATP Km 39 μM, 60 min, 28° C.
Protocol: as §1, §2

HDAC-1 = HDAC-1 (Homo sapiens (Human), UniProt Q13547); experiment: HDAC-1 fluorogenic deacetylase assay; conditions: recombinant, full-length protein, Ac-peptide-AMC substrate; read-out: HDAC1 (IC50)
Protocol: (§3) 2. HDAC-1, HDAC-2 and HDAC-6 Assays:
(§4) The inhibitory effect of compounds on HDAC-1, HDAC-2 and HDAC-6 function was determined in vitro using an optimized homogenous assay performed in 384-well plate format. In this assay, recombinant, full-length HDAC-1, HDAC-2 or HDAC-6 protein (BPS Biosciences) was incubated with Ac-peptide-AMC with concentration in Km plot. Reactions were performed in Tris-based assay buffer and followed for fluorogenic release of 7-amino-4-methylcoumarin from substrate upon deacetylase and trypsin enzymatic activity. Fluorescence measurements were obtained using a multilabel plate reader (Synergy MX with excitation at 355 nm and emission at 460 nm). Data were analyzed on a plate-by-plate basis for the linear range of fluorescence over time. Fit the data in GraphPad Prism V5.0 software to obtain IC50 values using equation (Y=Bottom+(Top−Bottom)/(1+10^((Log IC50−X)*Hill Slope), Y is % inhibition and X is compound concentration).

HDAC-6 = HDAC-6 (Homo sapiens (Human), UniProt Q9UBN7); experiment: HDAC-6 fluorogenic deacetylase assay; conditions: recombinant, full-length protein, Ac-peptide-AMC substrate; read-out: HDAC6 (IC50)
Protocol: as §3, §4

[1] = CDK4/CycD3 10 nM, ATP Km 221 μM, 180 min, 28° C.

HDAC-1, sequence (Q13547 whole entry): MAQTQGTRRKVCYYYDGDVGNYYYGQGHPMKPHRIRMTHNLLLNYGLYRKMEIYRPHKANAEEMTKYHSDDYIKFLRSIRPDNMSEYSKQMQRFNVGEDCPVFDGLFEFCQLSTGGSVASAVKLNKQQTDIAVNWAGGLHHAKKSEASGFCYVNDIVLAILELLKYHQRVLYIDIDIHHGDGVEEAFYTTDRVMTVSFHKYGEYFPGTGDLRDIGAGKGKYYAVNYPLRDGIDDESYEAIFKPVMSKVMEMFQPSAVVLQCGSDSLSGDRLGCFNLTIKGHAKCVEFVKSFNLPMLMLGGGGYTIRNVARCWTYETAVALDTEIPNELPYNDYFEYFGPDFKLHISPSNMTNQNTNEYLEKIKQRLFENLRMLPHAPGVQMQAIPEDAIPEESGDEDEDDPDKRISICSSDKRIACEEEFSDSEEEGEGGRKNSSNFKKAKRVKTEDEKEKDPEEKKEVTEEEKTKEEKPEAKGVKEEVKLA
CDK4/CycD3, sequence (P11802 whole entry, species assumed): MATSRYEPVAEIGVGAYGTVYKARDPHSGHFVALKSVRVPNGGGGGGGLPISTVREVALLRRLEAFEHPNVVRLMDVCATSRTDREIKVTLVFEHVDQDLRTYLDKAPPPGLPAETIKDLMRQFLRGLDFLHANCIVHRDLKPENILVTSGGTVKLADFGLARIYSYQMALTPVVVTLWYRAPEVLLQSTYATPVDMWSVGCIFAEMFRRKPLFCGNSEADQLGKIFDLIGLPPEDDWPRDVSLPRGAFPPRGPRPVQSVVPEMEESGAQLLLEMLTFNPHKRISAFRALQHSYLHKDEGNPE
CDK4/CycD3, sequence (P30281 whole entry partner, species assumed): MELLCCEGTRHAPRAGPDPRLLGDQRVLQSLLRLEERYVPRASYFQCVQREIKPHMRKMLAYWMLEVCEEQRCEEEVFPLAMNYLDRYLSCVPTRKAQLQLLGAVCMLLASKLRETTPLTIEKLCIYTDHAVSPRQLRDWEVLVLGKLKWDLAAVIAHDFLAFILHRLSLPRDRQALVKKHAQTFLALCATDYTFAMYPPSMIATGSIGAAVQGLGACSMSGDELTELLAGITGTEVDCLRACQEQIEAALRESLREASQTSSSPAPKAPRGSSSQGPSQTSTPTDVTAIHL
CDK6/cycD3, sequence (Q00534 whole entry, species assumed): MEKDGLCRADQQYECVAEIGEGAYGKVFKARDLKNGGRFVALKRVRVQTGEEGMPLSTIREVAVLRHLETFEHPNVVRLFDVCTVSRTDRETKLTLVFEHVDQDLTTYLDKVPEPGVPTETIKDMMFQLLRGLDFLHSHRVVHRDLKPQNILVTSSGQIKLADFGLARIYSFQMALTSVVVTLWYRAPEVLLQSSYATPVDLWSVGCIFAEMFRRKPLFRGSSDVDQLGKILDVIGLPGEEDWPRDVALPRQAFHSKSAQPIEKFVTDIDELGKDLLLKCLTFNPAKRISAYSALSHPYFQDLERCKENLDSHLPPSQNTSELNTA
CDK6/cycD3, sequence (P30281 whole entry partner, species assumed): as the sequence (P30281 whole entry partner, species assumed) above
HDAC-6, sequence (Q9UBN7 whole entry): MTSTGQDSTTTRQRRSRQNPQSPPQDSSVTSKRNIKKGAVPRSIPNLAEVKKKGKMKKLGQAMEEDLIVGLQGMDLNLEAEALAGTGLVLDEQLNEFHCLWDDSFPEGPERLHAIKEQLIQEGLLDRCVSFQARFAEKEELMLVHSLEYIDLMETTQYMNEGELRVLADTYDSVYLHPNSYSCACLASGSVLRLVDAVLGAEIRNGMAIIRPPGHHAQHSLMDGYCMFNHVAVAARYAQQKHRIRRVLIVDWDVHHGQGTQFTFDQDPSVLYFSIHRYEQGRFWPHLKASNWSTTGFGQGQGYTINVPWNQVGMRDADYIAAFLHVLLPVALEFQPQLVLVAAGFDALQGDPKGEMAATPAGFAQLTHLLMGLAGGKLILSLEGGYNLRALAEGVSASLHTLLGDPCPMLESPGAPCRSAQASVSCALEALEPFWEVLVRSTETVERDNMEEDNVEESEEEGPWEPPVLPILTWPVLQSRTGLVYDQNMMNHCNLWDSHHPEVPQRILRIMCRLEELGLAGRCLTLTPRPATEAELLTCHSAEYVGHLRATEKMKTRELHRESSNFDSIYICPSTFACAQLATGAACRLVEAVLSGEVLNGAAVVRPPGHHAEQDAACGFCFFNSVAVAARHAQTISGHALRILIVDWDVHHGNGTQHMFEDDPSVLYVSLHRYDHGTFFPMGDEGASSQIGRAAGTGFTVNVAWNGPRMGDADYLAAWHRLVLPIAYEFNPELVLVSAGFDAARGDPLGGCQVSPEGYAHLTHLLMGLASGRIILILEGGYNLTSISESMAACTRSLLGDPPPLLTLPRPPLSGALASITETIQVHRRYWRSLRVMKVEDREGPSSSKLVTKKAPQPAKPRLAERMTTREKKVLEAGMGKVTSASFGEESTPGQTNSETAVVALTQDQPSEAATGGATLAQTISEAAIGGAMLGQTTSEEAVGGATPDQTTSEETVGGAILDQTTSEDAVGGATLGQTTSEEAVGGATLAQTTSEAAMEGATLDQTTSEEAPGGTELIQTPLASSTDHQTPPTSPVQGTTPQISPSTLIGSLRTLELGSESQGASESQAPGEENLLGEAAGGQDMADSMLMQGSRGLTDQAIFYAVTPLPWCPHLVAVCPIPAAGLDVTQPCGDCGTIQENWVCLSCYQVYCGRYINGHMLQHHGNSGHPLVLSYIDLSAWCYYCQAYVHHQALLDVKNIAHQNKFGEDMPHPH

Row | SMILES | IC50 (CDK4/CycD3; [1]) [nM] | IC50 (CDK6/cycD3) [nM] | IC50 (CDK2/CycA2) [nM] | IC50 (HDAC-1) [nM] | IC50 (HDAC-6) [nM] | IC50 (CDK4/CycD3) [nM]
1 | CC(=O)c1c(C)c2cnc(Nc3ccc(N4CC5CNCC(C4)C5(F)F)cn3)nc2n(C2CCCC2)c1=O [Compound 4-2, 6-acetyl-8-cyclopentyl-2-(5-(9,9-difluoro-3,7-diazabicyclo[3.3.1]nonan-3-yl)pyridin-2-ylamino)-5-methylpyrido[2,3-d]pyrimidin-7(8H)-one] | < 50 | < 100 | – | – | – | –
2 | CC(=O)c1c(C)c2cnc(Nc3ccc(N4CC5CNCC(C4)C5(F)F)cn3)nc2n(C2CCCC2)c1=O (single isomer, unassigned) [Compound 4-1, 6-acetyl-8-cyclopentyl-2-(5-(9,9-difluoro-3,7-diazabicyclo[3.3.1]nonan-3-yl)pyridin-2-ylamino)-5-methylpyrido[2,3-d]pyrimidin-7(8H)-one] | < 25 | < 100 | < 1000 | – | – | –
3 | CC(=O)c1c(C)c2cnc(Nc3ccc(N4CCN(CCCCCCCC(=O)NO)CC4)cn3)nc2n(C2CCCC2)c1=O [Compound 15, 8-(4-(6-((6-acetyl-8-cyclopentyl-5-methyl-7-oxo-7,8-dihydropyrido[2,3-d]pyrimidin-2-yl)amino)pyridin-3-yl)piperazin-1-yl)-N-hydroxyoctanamide] | < 10 | < 25 | > 1000 | < 500 | < 50 | –
4 | CC(=O)c1c(C)c2cnc(Nc3ccc4c(n3)CCNC4)nc2n(C2CCCC2)c1=O [Compound 8, 6-acetyl-8-cyclopentyl-5-methyl-2-(5,6,7,8-tetrahydro-1,6-naphthyridin-2-ylamino)pyrido[2,3-d]pyrimidin-7(8H)-one] | – | < 100 | > 1000 | – | – | < 10
5 | CC(=O)c1c(C)c2cnc(Nc3ccc(C(=O)NCCCCCCC(=O)NO)cn3)nc2n(C2CCCC2)c1=O [Compound 18, 6-((6-acetyl-8-cyclopentyl-5-methyl-7-oxo-7,8-dihydropyrido[2,3-d]pyrimidin-2-yl)amino)-N-(7-(hydroxyamino)-7-oxoheptyl)nicotinamide] | < 50 | < 1000 | > 1000 | < 50 | < 10 | –
6 | CC(=O)c1c(C)c2cnc(Nc3ccc(N4CCN(CCCCCCC(=O)NO)CC4)cn3)nc2n(C2CCCC2)c1=O [Compound 14, 7-(4-(6-(6-acetyl-8-cyclopentyl-5-methyl-7-oxo-7,8-dihydropyrido[2,3-d]pyrimidin-2-ylamino)pyridin-3-yl)piperazin-1-yl)-N-hydroxyheptanamide] | < 10 | < 10 | – | < 500 | < 50 | –
7 | CC(=O)c1c(C)c2cnc(Nc3ccc(C(=O)NO)cn3)nc2n(C2CCCC2)c1=O [Compound 17, 6-((6-acetyl-8-cyclopentyl-5-methyl-7-oxo-7,8-dihydropyrido[2,3-d]pyrimidin-2-yl)amino)-N-hydroxynicotinamide] | < 50 | < 500 | > 1000 | < 500 | < 50 | –
8 | CC(=O)c1c(C)c2cnc(Nc3ccc(N4CC5CNCC(C5)C4)cn3)nc2n(C2CCCC2)c1=O [Compound 1, 2-(5-(3,7-diazabicyclo[3.3.1]nonan-3-yl)pyridin-2-ylamino)-6-acetyl-8-cyclopentyl-5-methylpyrido[2,3-d]pyrimidin-7(8H)-one] | < 10 | < 25 | > 5000 | – | – | –
9 | CC(=O)c1c(C)c2cnc(Nc3ccc(N4CCC5(CC4)CNC5)cn3)nc2n(C2CCCC2)c1=O [Compound 3, 2-(5-(2,7-Diazaspiro[3.5]nonan-7-yl)pyridin-2-ylamino)-6-acetyl-8-cyclopentyl-5-methylpyrido[2,3-d]pyrimidin-7(8H)-one] | < 10 | < 25 | > 5000 | – | – | –
10 | CC(=O)c1c(C)c2cnc(Nc3ccc(N4CCN(C(=O)CCCCCCC(=O)NO)CC4)cn3)nc2n(C2CCCC2)c1=O [Compound 12, 8-(4-(6-(6-acetyl-8-cyclopentyl-5-methyl-7-oxo-7,8-dihydropyrido[2,3-d]pyrimidin-2-ylamino)pyridin-3-yl)piperazin-1-yl)-N-hydroxy-8-oxooctanamide] | < 10 | < 25 | > 10000 | < 50 | < 10 | –
11 | CC(=O)c1c(C)c2cnc(Nc3ccc(N4CCN(C(=O)CCCC(=O)NO)CC4)cn3)nc2n(C2CCCC2)c1=O [Compound 13, 5-(4-(6-(6-acetyl-8-cyclopentyl-5-methyl-7-oxo-7,8-dihydropyrido[2,3-d]pyrimidin-2-ylamino)pyridin-3-yl)piperazin-1-yl)-N-hydroxy-5-oxopentanamide] | < 25 | < 50 | > 1000 | – | – | –
12 | CC(=O)c1c(C)c2cnc(Nc3ccc(N4CC5CNCC(C4)O5)cn3)nc2n(C2CCCC2)c1=O [Compound 2, 2-(5-(9-oxa-3,7-diazabicyclo[3.3.1]nonan-3-yl)pyridin-2-ylamino)-6-acetyl-8-cyclopentyl-5-methylpyrido[2,3-d]pyrimidin-7(8H)-one] | < 25 | < 100 | > 5000 | – | – | –
13 | CC(=O)c1c(C)c2cnc(Nc3ccc(N4CCN(Cc5ccc(C(=O)NO)cc5)CC4)cn3)nc2n(C2CCCC2)c1=O [Compound 16, 4-((4-(6-((6-acetyl-8-cyclopentyl-5-methyl-7-oxo-7,8-dihydropyrido[2,3-d]pyrimidin-2-yl)amino)pyridin-3-yl)piperazin-1-yl)methyl)-N-hydroxybenzamide] | < 10 | < 50 | > 1000 | < 500 | < 10 | –
14 | CC(=O)c1c(C)c2cnc(Nc3ccc(N4CCCC5(CCNCC5)C4)cn3)nc2n(C2CCCC2)c1=O [Compound 6, 2-(5-(2,9-diazaspiro[5.5]undecan-2-yl)pyridin-2-ylamino)-6-acetyl-8-cyclopentyl-5-methylpyrido[2,3-d]pyrimidin-7(8H)-one] | < 10 | < 25 | > 5000 | – | – | –
